Some test systems named below: SK-MEL-5 melanoma; KM20L2 colon; COLO 205 colon; SF-295 CNS; DLD-1 colon; KM12 colon; DMS 273 small cell lung; LXFL 529 NSCLC; NCI/ADR-RES ovarian.
Assay in all cases: growth of human tumour cells (NCI), 48 h

The results in this text go back to PubChem BioAssay (NCI).

The structures appear in SMILES notation. Where “and” joins values, the source holds several entries; their conditions need not be identical. Equal values may be shown once.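 Interpolation was linear, between the two tested concentrations surrounding the appropriate level; five concentrations were tested over 48 hours in 96-well plates. GI50 = concentration required for 50% inhibition of growth. Definition used: TGI = concentration required for complete inhibition of growth.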

Take `COC(=O)C(C(=O)C(N)=O)c1csc(-n2nc(-c3ccccc3)cc2-c2ccccc2)n1` (centres undefined): the TGI in the experiment on SK-MEL-5 melanoma is more than 31.6 µM; in the experiment on KM20L2 colon, more than 31.6 µM; in the experiment with COLO 205 colon, more than 31.6 µM; in the experiment on SF-295 CNS, more than 100 µM; in the experiment with DLD-1 colon it was more than 31.6 µM; in the experiment with KM12 colon it was more than 31.6 µM. Also, the TGI with DMS 273 small cell lung and with LXFL 529 NSCLC was more than 31.6 µM throughout.
Turning to `CC(=O)Nc1ccc(-c2nnc(SCC(=O)Nc3ccc(Cl)cc3)o2)cc1`, the TGI in the experiment with SK-MEL-5 melanoma amounted to 19.7 µM; with KM20L2 colon, 33.3 µM; with COLO 205 colon, 34.6 µM; with SF-295 CNS, 25.2 µM; in the experiment on DLD-1 colon, 27.9 µM; in the experiment on KM12 colon it was 29 µM. Besides, the TGI with DMS 273 small cell lung worked out at 40.3 µM; in the experiment with LXFL 529 NSCLC it was 22.5 µM.
Take `COc1ccc2c([nH]c3c(O)c(-c4c(C)cc5c([nH]c6c(CC=C(C)C)c(OC)ccc65)c4O)c(C)cc32)c1CC=C(C)C`: the TGI in the experiment with SK-MEL-5 melanoma, in the experiment on KM20L2 colon, in the experiment on COLO 205 colon, in the experiment with SF-295 CNS, with DLD-1 colon and with KM12 colon was more than 100 µM in each case. Besides, the TGI in the experiment on DMS 273 small cell lung and in the experiment with LXFL 529 NSCLC was more than 100 µM throughout.
Turning to `c1ccc(-c2nnc3nn4c(-c5ccccc5)cnnc4c3c2-c2ccccc2)cc1`, the TGI in the experiment with SK-MEL-5 melanoma, in the experiment with KM20L2 colon, in the experiment on SF-295 CNS, in the experiment with DLD-1 colon, in the experiment with KM12 colon and in the experiment with DMS 273 small cell lung was more than 100 µM throughout. In addition, in the experiment on LXFL 529 NSCLC, the TGI was more than 100 µM.
In the case of `COc1ccc(NC(=O)C2C(=O)N(c3ccc(OC)cc3)C(=O)/C2=N\NC(N)=O)cc1` (centres undefined), the TGI is 37.7 µM with SK-MEL-5 melanoma; more than 100 µM in the experiment on KM20L2 colon; more than 100 µM with COLO 205 colon; more than 100 µM in the experiment with SF-295 CNS; 43.2 µM in the experiment on KM12 colon; more than 100 µM with DMS 273 small cell lung. This molecule came in with a TGI in the experiment on LXFL 529 NSCLC of more than 100 µM.
Regarding `S=c1c2ccccc2c(=S)n2n1CC=CC2`, the TGI in the experiment on SK-MEL-5 melanoma, in the experiment with KM20L2 colon, with COLO 205 colon, in the experiment on SF-295 CNS, in the experiment with DLD-1 colon and in the experiment on KM12 colon was more than 100 µM throughout. Moreover, the TGI in the experiment with DMS 273 small cell lung and in the experiment with LXFL 529 NSCLC was more than 100 µM in each case.
Turning to `COC(=O)C(=O)C(C(=O)C(=O)Nc1cc(Cl)c(Cl)cc1Cl)c1nc2ccc([N+](=O)[O-])cc2[nH]c1=O` (centres undefined), the TGI with SK-MEL-5 melanoma, with KM20L2 colon, with COLO 205 colon, with SF-295 CNS, with KM12 colon and with DMS 273 small cell lung was more than 100 µM throughout. In the experiment with LXFL 529 NSCLC, the TGI is more than 100 µM.
As for `CCCCCCCCCCCCCCCCCC(=O)NCC(COP(=O)(O)O)OCC` (centres undefined), the TGI in the experiment with SK-MEL-5 melanoma is more than 100 µM; in the experiment with COLO 205 colon it was more than 100 µM; in the experiment on SF-295 CNS, 37.5 µM; in the experiment on DLD-1 colon it was more than 100 µM; in the experiment on KM12 colon it was 58.3 µM; with DMS 273 small cell lung, more than 100 µM. The same molecule showed a TGI in the experiment on LXFL 529 NSCLC of more than 100 µM.
As for `Cc1ccc(/C=N/NS(=O)(=O)c2ccccc2)c(C)c1`, the TGI in the experiment on SK-MEL-5 melanoma, in the experiment on KM20L2 colon, in the experiment with COLO 205 colon, in the experiment on SF-295 CNS, in the experiment with DLD-1 colon and in the experiment with KM12 colon was more than 100 µM each time. Moreover, the TGI in the experiment on DMS 273 small cell lung and in the experiment on LXFL 529 NSCLC was more than 100 µM each time.
On to `O=c1[nH]cc(C(F)(C(F)(F)F)C(F)(F)F)c(=O)[nH]1`, for which the TGI in the experiment on SK-MEL-5 melanoma, with KM20L2 colon, in the experiment with COLO 205 colon, in the experiment on SF-295 CNS, in the experiment with DLD-1 colon and with KM12 colon was more than 100 µM in each case. Also, the TGI in the experiment on DMS 273 small cell lung and in the experiment with LXFL 529 NSCLC was more than 100 µM in each case.
Take `CC(=O)OC(=O)O/C=C\CCl`: the TGI in the experiment on SK-MEL-5 melanoma, with KM20L2 colon, in the experiment on COLO 205 colon, in the experiment on DLD-1 colon, with KM12 colon and in the experiment on DMS 273 small cell lung was more than 100 µM throughout. The same molecule came in with a TGI in the experiment on LXFL 529 NSCLC of more than 100 µM.
As to `Cc1ccc2nc(NC(=O)C(=O)CC(=O)c3cccc4ccccc34)sc2c1`, the TGI in the experiment on SK-MEL-5 melanoma was 55.4 µM; in the experiment with KM20L2 colon it was more than 100 µM; with COLO 205 colon it was more than 100 µM; with SF-295 CNS it was 48.4 µM; in the experiment on DLD-1 colon, more than 100 µM; with KM12 colon, more than 100 µM. Further, the TGI in the experiment on DMS 273 small cell lung and with LXFL 529 NSCLC was more than 100 µM each time.
Turning to `C/C(CC(=O)Nc1cccc([N+](=O)[O-])c1)=N\NC(=O)CC#N`, the TGI with SK-MEL-5 melanoma, with KM20L2 colon, in the experiment on COLO 205 colon, in the experiment with SF-295 CNS, in the experiment with DLD-1 colon and in the experiment with KM12 colon was more than 100 µM throughout. For the same molecule, the TGI in the experiment on DMS 273 small cell lung and in the experiment on LXFL 529 NSCLC was more than 100 µM each time.
Consider `Cc1c2ccncc2c(C)c2c1[nH]c1ccc(Cl)cc12`, for which the TGI was 13.8 µM in the experiment on SK-MEL-5 melanoma; 9.55 µM in the experiment on KM20L2 colon; 9.41 µM and 15 µM in the experiment with COLO 205 colon; 8.38 µM and 15.3 µM in the experiment on SF-295 CNS; 8.14 µM and 4.89 µM in the experiment with DLD-1 colon; 5.7 µM and 18.9 µM in the experiment with KM12 colon. Further, the TGI with DMS 273 small cell lung came to 5.75 µM; in the experiment with NCI/ADR-RES ovarian, 4.75 µM; in the experiment with LXFL 529 NSCLC, 14 µM. In addition, the GI50 with KM20L2 colon is 3.06 µM; with COLO 205 colon, 3.09 µM; with SF-295 CNS, 2.56 µM and 3.56 µM; with DLD-1 colon, 1.67 µM; in the experiment with KM12 colon, 4.25 µM.
For `O=C1C=Cc2ncccc2C1=O`, the TGI in the experiment with SK-MEL-5 melanoma was 28.2 µM; with KM20L2 colon it was more than 63.2 µM; in the experiment on COLO 205 colon it was 32.5 µM; in the experiment on SF-295 CNS, 32.2 µM; in the experiment on DLD-1 colon it was 34.2 µM; in the experiment on KM12 colon, more than 58.5 µM. The TGI with DMS 273 small cell lung is 30.9 µM; with LXFL 529 NSCLC it was 30.2 µM.
As for `O=CCCCC(Sc1ccccc1)Sc1ccccc1`, the TGI in the experiment with SK-MEL-5 melanoma was 30.8 µM; in the experiment on KM20L2 colon, more than 100 µM; in the experiment on COLO 205 colon, 57.9 µM; with SF-295 CNS it was 40.7 µM; in the experiment on DLD-1 colon, 31.6 µM; with KM12 colon it was more than 100 µM. Further, the results for the TGI with DMS 273 small cell lung and in the experiment with LXFL 529 NSCLC were 33.9 µM and 25.6 µM, respectively.
